Legend:
MRL/lpr mice = assay: Systemic lupus erythematosus animal model (MRL/lpr); format: in vivo, MRL/MpJ-Faslpr/J mice
Description: The MRL/MpJ-Faslpr/J (hereinafter referred to as “MRL/lpr”) used in this experiment is one of the representative animal models for systemic lupus erythematosus (SLE), known to produce various autoantibodies, including antinuclear antibodies, due to the lpr (lymphoproliferation) gene.
In this invention, the period up to 9 weeks of age was considered the pre-disease stage, and the period after 23 weeks of age was considered the post-disease stage, and efficacy verification experiments using this model were conducted.
Subsequently, female and male MRL/lpr mice were mated at a ratio of 2:1 in the same facility, and the female offspring were administered the compound GO15F of the present invention or vehicle at a dose of 30 mg/kg once daily via intraperitoneal injection or oral administration from the age of 10 weeks until 23 weeks of age.
Urine samples were collected once a week from each individual and used for analytical experiments.
At 23 weeks of age, necropsy was performed on each MRL/lpr mouse, and serum, kidneys, and spleens were isolated and used for analytical experiments. […]
The concentration of anti-nuclear antibodies (Anti-dsDNA Ab) was measured using the ‘Mouse Anti-dsDNA IgG ELISA Kit (Alpha Diagnostic International, Cat. #5120)’ on serum isolated at the time of necropsy in the lupus animal model.
Each mouse serum was diluted to a final concentration of 1/5000 with Working Sample Diluent (WSD) and Low NSB Sample Diluent (LNSD), followed by adding 100 μl of the diluted serum to wells coated with anti-dsDNA and incubating at room temperature for 60 minutes.
The serum separated at the time of necropsy of the lupus animal model was analyzed using the ‘IgG (Total) Mouse Uncoated ELISA Kit (Invitrogen, Cat. #88-50400)’ to measure the concentration of total IgG.
To investigate the effect of GO15F administration on changes in the ratio of immune cells in the spleen of a lupus animal model, the spleens of mice administered each compound were excised, cells were extracted, and the cells were suspended in MACS buffer (autoMACS Washing Solution, Miltenyi Biotec., Cat. #130-092-987).
For flow cytometry analysis, FACS tubes (5 mL round tubes, Falcon, Cat. #352052) were used. To prevent non-specific binding of antibodies, 1 μg/mL of anti-mouse CD16/CD32 (In VivoPlus anti-mouse CD16/CD32, BioXCell, Cat. #BP0307) for 30 minutes to prevent non-specific binding of the antibody, then centrifuge at 1,500 rpm for 5 minutes and resuspend in 100 μL of MACS buffer.
For B cells, each FACS tube was stained with 1 μg/mL of FITC-conjugated anti-B220 antibody (eBioscience™, Cat. #11-0452-81) at 4° C. for 30 minutes, then washed with 2 mL of MACS buffer.
For T cells, each FACS tube was stained with 1 μg/mL PerCP-Cy5.5-conjugated anti-CD3 (Biolegend, Cat. #100218) at 4° C. for 30 minutes.
For macrophages, each FACS tube was stained with 1 μg/mL of PE-conjugated anti-CD11b antibody (Biolegend, Cat. #101207) and PerCP-Cy5.5-conjugated anti-F4/80 (Biolegend, Cat. #123128) and incubated at 4° C. for 30 minutes. The tubes were then washed with 2 mL of MACS buffer. […]
The synthesized cDNA from each mouse was quantified to a concentration of 50 ng using a micro-quantitative spectrophotometer, and qPCR was performed for the cytokines ‘IL-2, IL-6, IL-10, IL-17, TNF-α, IFN-γ’ using a SYBR green probe (CFX96, BIO-RAD).
To investigate the effects of drug administration on renal tissue in MRL/lpr mice, the tissue was fixed in 10% neutral buffered formalin at room temperature, followed by stepwise ethanol penetration for dehydration. The tissue was then embedded in xylene and paraffin.
The blocked tissues were sectioned into 4 μm thick slices using a microtome, followed by deparaffinization, hydration, and staining.
Hematoxylin & Eosin staining, PAS staining, and Masson trichrome staining were performed for pathological evaluation of the tissues. […]

[1] = tested on: Human multiple myeloma, KMS34; assay: Relative cell viability, KMS34 (CCK-8); format: cell-based; conditions: concentration 1 μM, relative to untreated cells
Procedure: (§1) After that, 10 μL of CCK-8 was added to each well, and the plate was incubated again at 37° C. in a 5% CO2 incubator for 2 hours.
(§2) In other words, when the survival rate of untreated cells (DMSO) is set at 100%, the relative cell survival rate in each group treated with the drug at different concentrations is indicated.

[2] = tested on: Human Bladder cancer cell, T24; assay: Relative cell viability, T24 (CCK-8); format: cell-based; conditions: 48 hours
Procedure: Human-derived breast cancer cell line MCF-7, human-derived lung cancer cell line A549, human-derived colorectal cancer cell line HCT-116, human pancreatic cancer cell line AsPC-1, glioblastoma cell line A172, and melanoma cell line Malme-3M were obtained from the Korean Cell Bank. gastric cancer cell line SNU-719, and bladder cancer cell line T24 were cultured in RPMI-1640 medium containing 10% FBS.
(§3) Following stabilization, the cells were harvested using Trypsin-EDTA treatment, centrifuged at 1,200 rpm for 3 minutes, the supernatant was removed, and the cells were resuspended in the same medium. They were then seeded into a 96-well plate (Costar 96-well cell culture plate, Corning) at 100 μL per well, and the conditions were adjusted as indicated in Table 5.
(§4) The cells were cultured in a 5% CO2 incubator at 37° C. for 24 hours, and after stabilization of the cells, each plate was washed with 200 μL of PBS per well and treated with 50 μL of culture medium per well. […]
as §1, §2

[3] = tested on: Human Osteosarcoma, Saos-2; assay: Relative cell viability, Saos-2 (CCK-8); format: cell-based
Procedure: Human-derived head and neck cancer cell line Fadu and osteosarcoma cell line Saos-2 were cultured in MEM medium containing 10% FBS, 100 U/mL penicillin, and 100 μg/mL streptomycin.
as §3, §4, §1, §2

[4] = serum at necropsy, ELISA, vs control group

Row | Molecule | protein concentration in urine (MRL/lpr mice; 30 mg/kg once daily, vs control group) | renal pathological tissue staining (glomeruli) (MRL/lpr mice; H&E, PAS, Masson trichrome) | immune cells in the spleen (B cells, T cells, macrophages) (MRL/lpr mice; flow cytometry (B220, CD3, CD11b/F4/80)) | IgG deposition in kidney tissue (MRL/lpr mice; immunofluorescence staining, vs control group) | concentration of anti-dsDNA IgG in the blood (MRL/lpr mice; [4]) | total IgG concentration in the blood (MRL/lpr mice; [4]) | Relative cell viability (%) [1] | Relative cell viability (%) ([2]; T24, 1 μM) | Relative cell viability (%) ([2]; T24, 10 μM) | Relative cell viability (%) ([2]; T24, 30 μM) | Relative cell viability (%) ([2]; T24, 50 μM) | Relative cell viability (%) ([3]; Saos-2, 10 μM, 48 hours) | Relative cell viability (%) ([3]; Saos-2, 30 μM, 48 hours) | Relative cell viability (%) ([3]; Saos-2, 50 μM, 48 hours) | Relative cell viability (%) ([3]; Saos-2, 48 hours)
1 | Nc1ncccc1C(=O)NCCCCCCCCCCCCF [Compound 57, 2-Amino-N-(12-fluoro-dodecyl)-nicotinamide] | significantly lower | glomerular capillary loops were well maintained | reduced the increased B cells, T cells, and macrophages | significantly lower | significantly lower | significantly lower | – | – | – | – | – | – | – | – | –
2 | 12-[4-(2,2-dimethylmorpholin-4-yl)]dodecyl-N-(6-aminopurine-2-yl) carboxamide [Compound 11] | – | – | – | – | – | – | 26.19% | 28.15% | 31.17% | 30.42% | 29.34% | 24.98% | 16.00% | 36.73% | 36.73%
